Results taken from patent US12624068B2, “Exon skipping by peptide nucleic acid derivatives” (OliPass Corporation, priority 2016, dated 2026).
[C(1O2)] = modified PNA monomer acting as cytosine, C(pOq) type, 1O2; [A(6)] = modified PNA monomer acting as adenine, A(p) type, p=6; [G(6)] = modified PNA monomer acting as guanine, G(p) type, p=6; {Fethoc} = N-terminal Fethoc cap; {NH2} = C-terminal amide

Assays:
[1] = system: full-length SNAP25 mRNA; experiment: SNAP25 nested qPCR in PC12 cells; assay type: cell-based, rat
Protocol: [Cell Culture & ASO Treatment] PC12 cells grown in 60 mm culture dish containing 5 mL culture medium were treated with “SNAP-ASO 3” at 0 (negative control), 10, 100 or 1,000 zM. (2 culture dishes per ASO concentration) [RNA Extraction & cDNA Synthesis by One-step RT-PCR] Following an incubation with “SNAP-ASO 3” for 42 hours, the cells were treated 100 μg/mL cycloheximide for another 6 hours to freeze the ribosomal translation. Then total RNA was extracted from cells using “Universal RNA Extraction Kit” (Cat. Number 9767, Takara) according to the manufacturer's instructions. […] NO: 130); and SNAP-exon 14_reverse: (5'→3') […] [Nested qPCR Amplification] […] NO: 132); and SNAP-exon 8q_reverse: (5'→3') […] The qPCR reaction was followed with a Taqman probe of [(5'→3') 5,6-[…] NO: 134)] targeting the junction of exon 7 and exon 8 in order to quantify the full-length SNAP25 mRNA.

[2] = system: SNAP25 protein; experiment: SNAP25 western blot in PC12 cells; assay type: cell-based, rat; details: 100 or 1,000 zM, 48 hours or 72 hours
Protocol: “SNAP-ASO 3” was evaluated for its ability to inhibit the expression of the SNAP25 protein in PC12 cells as follows.
PC12 cells were grown in 60 mm culture dish containing 5 mL culture medium, and treated with “SNAP-ASO 3” at 0 zM (negative control), 1 zM, 10 zM, 30 zM, 100 zM, 300 zM, 1 aM, 3 aM or 10 aM for 48 hours. There were 4 culture dishes of the negative control to compensate for potential technical artifacts during the western blot analysis.
[Cell Lysis] Then the cells were subjected to lysis on ice with 200 μL 1×RIPA buffer (Cat. Number 9806, Cell Signaling Tech) supplemented with 1% SDS and 1× proteinase inhibitors cocktail (cOmplete Mini, Roche). The lysates were collected in 1.5 mL e-tube, mixed with 100 μL 5× sample buffer, and boiled for 5 min.
[Western Blot] The lysates were subjected to electrophoretic separation on a 4-15% TGX-PAGE gradient gel (Cat. Number 456-1086, Bio-Rad) and then transferred onto a 0.45 μm PVDF membrane. The membrane was probed with an anti-SNAP25 antibody (Cat. Number S9684, Sigma) and an anti-β-actin antibody (Cat. Number A3845, Sigma).
“SNAP-ASO 1” was evaluated for its ability to inhibit the SNAP25 protein expression in PC12 cells as described in “SNAP25 Example 4”, unless noted otherwise. PC12 cells were treated with “SNAP-ASO 1” at 0 (negative control), 100 or 1,000 zM either for 48 hours or for 72 hours. […]

[3] = system: SNAP25 protein; experiment: SNAP25 IHC in skin of mice after topical administration; assay type: in vivo, C57BL/6 mice; details: topical 1, 10 or 100 fM solution, twice per day Days 0 to 4
Protocol: “SNAP-ASO 1” is a 16-mer ASO fully complementary to the 3′ splice site spanning the junction of intron 6 and exon 7 in the mouse SNAP25 pre-mRNA read out from the mouse genomic DNA [accessed from NCBI Reference Sequence: NC_000068]. “SNAP-ASO 1” was evaluated for its ability to inhibit the expression of SNAP25 protein in the skin upon topical administration as follows.
[Hair Cut and Grouping] In Day 0, 8 female C57BL/6 mice (5 weeks old) were anesthetized with zoletil/rompun, and the hair in the back (ca 3 cm×4 cm) was cut with a clipper. The mice were randomly assigned into 4 groups, i.e., no ASO treatment group (negative control) and 3 treatment groups of 1 fM, 10 fM and 100 fM “SNAP-ASO 1”. (2 animals per group)
[Topical Administration] Topical solutions were prepared by serially diluting an aqueous stock solution of “SNAP-ASO 1” in 30% (v/v) aqueous ethanol supplemented with 3% (v/v) glycerin to 0, 1, 10 and 100 fM “SNAP-ASO 1”. […]
[SNAP25 IHC] Skin samples were cryo-sectioned and immunostained in series with a primary anti-SNAP25 antibody (Cat. Number ab41455, Abcam) at 1:200 dilution, with a secondary anti-IgG (Cat Number BA-1100, Vector) at 1:200 dilution, and then with Dylight 594-streptavidin (Cat Number SA-5594, Vector, CA, USA) at 1:200 dilution for red fluorescence tagging. […]

[4] = system: 10-mer complementary DNA; experiment: Tm between PNA derivatives and 10-mer complementary DNA (N- or C-terminal); assay type: binding; details: uncorrected
How it was run: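 4 μM 10-mer PNA with 4 μM complementary 10-mer DNA in pH 7.16 buffer (10 mM sodium phosphate, 100 mM NaCl) was heated at 90 °C for a minute, slowly cooled to ambient, then Tm measured by UV absorbance at 260 nm.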

[5] = system: mouse TYR pre-mRNA; experiment: TYR nested PCR for exon skipping in B16F10 cells; assay type: cell-based; details: 1 to 1,000 aM, 5 hours
Protocol: “TYR-ASO 4” was evaluated for its ability to induce the skipping of the mouse TYR exon 2 in B16F10 melanoma cells as follows. “TYR-ASO 4” may serve as a good surrogate compound for “TYR-ASO 1” which is fully complementary to the human TYR pre-mRNA. [Cell Culture & ASO Treatment] B16F10 mouse melanoma cells (Cat. Number CRL-6475, ATCC) were maintained in DMEM (Dulbecco's modified Eagle's essential minimum medium) supplemented with 10% FBS, 1% streptomycin/penicillin, and 0.01 mg/ml bovine insulin. B16F10 cells grown in 60 mm culture dish containing 5 mL DMEM were incubated for 5 hours with “TYR-ASO 4” at 0 (negative control), 1, 10, 100 or 1000 aM. [RNA Extraction & cDNA Synthesis by One-step PCR] Total RNA was extracted using “Universal RNA Extraction Kit” (Cat. Number 9767, Takara) according to the manufacturer's instructions. […] NO: 142); and TYR-exon 4_reverse: (5'→3') […] [Nested PCR Amplification] […] NO: 144); and TYR-exon 4n_reverse: (5'→3') […] [Identification of Exon Skipping Products] The PCR products were subjected to electrophoretic separation on a 2% agarose gel. The bands of target size were collected and analyzed by Sanger Sequencing.

[6] = system: full-length TYR mRNA; experiment: TYR nested qPCR in B16F10 cells; assay type: cell-based, mouse; details: 1 to 1,000 aM
Protocol: [Cell Culture & ASO Treatment] B16F10 cells grown in 60 mm culture dish containing 5 mL culture medium were treated with “TYR-ASO 4” at 0 (negative control), 1, 10, 100 or 1000 aM. (2 culture dishes per dose)
[RNA Extraction & cDNA Synthesis by One-step PCR] Total RNA was extracted and subjected to cDNA synthesis as described in “TYR Example 1”.
[Nested qPCR Amplification]
[Statistical Analysis] The nested qPCR experiment was repeated independently four times, and individual mRNA levels from each experiment were normalized against the mRNA level without ASO treatment. The mRNA levels obtained from all the 4 separate experiments were pooled for statistical analysis by student's t-test. Thus the number of RNA samples is 8 per ASO concentration.

[7] = system: TYR protein; experiment: TYR western blot in B16F10 cells; assay type: cell-based, mouse; details: 10 zM to 10 aM, 24 hours
Protocol: “TYR-ASO 4” was evaluated for its ability to inhibit the expression of TYR protein in B16F10 cells as described below.
B16F10 cells grown in 60 mm culture dish containing 5 mL culture medium were treated with “TYR-ASO 4” for 24 hours at 0 zM (negative control), 10 zM, 100 zM, 1 aM or 10 aM, and subjected to lysis with 200 μL 1× cell lysis buffer (Cat. No. 9803, Cell Signaling Tech) supplemented with 1× protease inhibitors cocktail (Cat. No. P8340, Sigma). 200 μL of each lysate was mixed with 100 μL 5× sample buffer, and boiled at 100° C. for 5 min. 20 μL of each lysate was subjected to electrophoretic separation on a 4-15% gradient TGX gel (Cat No. 456-1086, Bio-Rad), and protein transfer onto a 0.45 μm PVDF membrane. The membrane was probed with an anti-TYR antibody (Cat. No. 9319, Cell Signaling Tech) and an anti-3-actin antibody (Cat. No. a3845, Sigma).

[8] = system: melanogenesis in B16F10 cells; experiment: Melanin content (melanogenesis) in B16F10 cells; assay type: cell-based, mouse; details: 1 to 1,000 aM, 24 hours
Protocol: “TYR-ASO 4” was evaluated for its ability to inhibit the melanogenesis in B16F10 cells as described below.
B16F10 cells grown in 60 mm culture dish containing 5 mL culture medium were treated either with “TYR-ASO 4” at 0 (negative control) or 1 to 1,000 aM, or with 10 or 100 μg/mL arbutin as a positive control. (2 culture dishes per dose) 24 hours later, the cells were subjected to lysis with 200 μL 1N NaOH. Each lysate was collected in 1.5 mL e-tube, and kept overnight at room temperature. The melanin content in each lysate was determined by absorbance at 475 nm on an ELISA reader. The experiment was repeated four times using cells at different passage. The four sets of the melanin content data were pooled for statistical analysis by student's t-test against the melanin content without treatment (negative control).

[9] = system: full-length TYR mRNA; experiment: TYR nested qPCR in human primary epidermal melanocytes; assay type: cell-based; details: 1 zM to 10 aM, 5 hours
Protocol: [Cell Culture & ASO Treatment] Primary epidermal melanocytes (Cat. Number PCS-200-013, ATCC) cells were maintained in Dermal Cell Basal Medium (Cat Number PCS-200-030, ATCC) supplemented with Adult Melanocyte Growth Kit Component (Cat. Number PCS-200-042, ATCC). Melanocytes grown in 60 mm culture dish containing 5 mL culture medium were treated with “TYR-ASO 1” at 0 zM (negative control), 1 zM, 100 zM, or 10 aM. (3 culture dishes per concentration) [RNA Extraction & cDNA Synthesis by One-step PCR] Following an incubation with “TYR-ASO 1” for 5 hours, total RNA was extracted using “RNeasy Mini Kit” (Cat. Number 74106, Qiagen) according to the manufacturer's instructions. […] NO: 147); and TYR-exon 5_reverse: (5'→3') […] [Nested PCR Amplification] […] NO: 149); and TYR-exon 3n_reverse: (5'→3') […] NO: 150)] against a Taqman probe [(5'→3') 5,6-[…] NO: 151)].

Row | Substance | decrease of full-length SNAP25 mRNA level (qPCR) ([1]; PC12 cells, 10 zM) [%] | decrease of full-length SNAP25 mRNA level (qPCR) ([1]; PC12 cells, 100 zM) [%] | decrease of full-length SNAP25 mRNA level (qPCR) ([1]; PC12 cells, 1,000 zM) [%] | expression of the SNAP25 protein (western blot) [2] | SNAP25 protein expression in the muscle layer of skin (IHC) [3] | Tm Value, 10-mer DNA against C-Terminal [4] [°C] | Tm Value, 10-mer DNA against N-Terminal [4] [°C] | TYR exon skipping by nested PCR [5] | decrease of full-length TYR mRNA level (qPCR) [6] [%] | TYR protein level (western blot) [7] | decrease of melanin content [8] [%] | decrease of full-length TYR mRNA level (qPCR) [9] [%]
1 | Fethoc-A(6)TT-TG(6)T-TA(6)C-CC(1O2)T-GG(6)G-A(6)-NH2 (ATTTGTTACCCTGGGA; all peptide nucleic acid (PNA), [A(6)] at 1, 8, 16, [G(6)] at 5, 14, [C(1O2)] at 11, 5' {Fethoc}, 3' {NH2}; peptide nucleic acid written N to C) [SNAP-ASO 1] | ~50 | 40 | 70 | considerably inhibited | gradually decreased as the dose was increased | – | – | – | – | – | – | –
2 | Fethoc-CA(5)A-A(5)TG-A(5)TC(1O2)-TG(6)T-G-NH2 (antisense CAAATGATCTGTG; chemistry not fully specified) [TYR-ASO 4] | – | – | – | – | – | 72.0 | 72.0 | yielded essentially only the splice variant TYR mRNA lacking exons 2 and 3 | ~40 | considerably higher in the lysates of the negative control | ~15 | –
3 | Fethoc-CA(5)G-ACA(5)-ATC(1O2)-TG(6)T-A(5)-NH2 (antisense CAGACAATCTGTA; chemistry not fully specified) [TYR-ASO 1] | – | – | – | – | – | 73.0 | 78.0 | – | – | – | – | ~30
